Where a SMILES comes first, the peptide text is derived from it. Where no end group is shown, it is not given here.
Columns and labels:
[1] = tested on: human adipose-derived mesenchymal stem cells (AD-MSC); experiment: CCK-8 assay, cytotoxicity; type: cell-based; conditions: 7 days, peptide at different concentrations, FIG. 3, FIG. 4
Procedure: Specifically, AD-MSC cells were seeded in 96-well plates at a density of 1.5×10^3 cells/well and cultured in Dulbecco's Modified Eagle's Medium (DMEM) supplemented with 10% FBS for 24 hours. Then, the medium was replaced with DMEM medium supplemented with 5% FBS, and Peptide-1 or Peptide-2 was treated at different concentrations, respectively. Subsequently, the medium was replaced every 3 days and Peptide-1 or Peptide-2 was treated at different concentrations, respectively. To confirm CCK-8 activity, after 7 days, CCK-8 (Dojindo, CCK-8 kit) solution was added at 1/10 volume of the culture medium, and incubated for 2 hours. The culture medium was sampled and CCK-8 activity was confirmed at a wavelength of 450 nm using a microplate reader.

[2] = tested on: human adipose-derived mesenchymal stem cells (AD-MSC); experiment: SRB staining, cell morphology changes; type: cell-based; conditions: peptide at different concentrations, FIG. 1, FIG. 2
Procedure: Additionally, for SRB staining, after suctioning the medium from the plate, 60 μL of 3.7% formalin was added to the 96-well plate to be stained and fixed for 1 minute. After suctioning 3.7% formalin, 70 μL of SRB staining solution (sulforhodamine B sodium salt (sigma, S9012): 0.2 g in 100 mL DDW) was added and stained. The plate was covered with aluminum foil, blocked from light, and incubated overnight at room temperature. After washing with 100 μL of 1% acetic acid using a multi-pipette, it was dried and observed under a microscope. Meanwhile, in this example, the positive control group (CM) used was one containing dexamethasone (100 nM), […], proline (40 μM), TGFβ1 (10 ng/ml), and 1×ITS.

Molecule	toxicity toward adipose-derived mesenchymal stem cells (CCK-8 activity) [1]	change in cell morphology in SRB staining [2]
CC(C)C[C@H](NC(=O)[C@@H](N)CCCNC(=N)N)C(=O)N[C@@H](CCCNC(=N)N)C(=O)N[C@@H](CO)C(=O)O [Peptide-2, RLRS] (H-RLRS-OH)	did not exhibit toxicity	did not show any change in cell morphology
LYRYEEHHE [Peptide-1, LYRYEEHHE]	did not exhibit toxicity	did not show any change in cell morphology
